From publication PMC9234961 (Journal of Medicinal Chemistry, 2022)
Like-named read-outs stand apart in the source and are kept apart here.

Tests used:
[1] = target: kinases (468) (Homo sapiens, UniProt Q9BXA7); settings: kinase TSSK1B (Entrez TSSK1B); compound concentration 1000 nM
[2] = target: kinases (468) (Homo sapiens, UniProt P21860); settings: ERBB3; 1000 nM
[3] = target: kinases (468) (Homo sapiens, UniProt P10721, D816H); settings: KIT(D816H); 1000 nM
[4] = target: kinases (468) (Homo sapiens, UniProt Q9Y6E0); settings: MST3 (STK24); 1000 nM
[5] = target: kinases (468) (Homo sapiens, UniProt P35968); settings: kinase VEGFR2 (Entrez KDR); compound concentration 1000 nM
[6] = target: kinases (468) (Homo sapiens, UniProt Q6DT37); settings: DMPK2 (CDC42BPG); 1000 nM
[7] = target: kinases (468) (Homo sapiens, UniProt P10721, V559D/V654A); settings: KIT(V559D,V654A); 1000 nM
[8] = target: kinases (468) (Homo sapiens, UniProt Q9Y5S2); settings: MRCKB (CDC42BPB); 1000 nM
[9] = target: kinases (468) (Homo sapiens, UniProt Q9BVS4); settings: kinase RIOK2 (Entrez RIOK2); compound concentration 1000 nM
[10] = target: kinases (468) (Homo sapiens, UniProt P28482); settings: ERK2 (MAPK1); 1000 nM
[11] = target: kinases (468) (Homo sapiens, UniProt Q96L34); settings: MARK4; 1000 nM
[12] = target: kinases (468) (Homo sapiens, UniProt P51817); settings: PRKX; 1000 nM
[13] = target: kinases (468) (Homo sapiens, UniProt P49336); settings: CDK8; 1000 nM
[14] = target: kinases (468) (Homo sapiens, UniProt O43283); settings: LZK (MAP3K13); 1000 nM
[15] = target: kinases (468) (Homo sapiens, UniProt P42336, E542K); settings: PIK3CA(E542K); 1000 nM
[16] = target: kinases (468) (Homo sapiens, UniProt O00506); settings: kinase YSK1 (Entrez STK25); compound concentration 1000 nM
[17] = target: kinases (468) (Homo sapiens, UniProt Q8TD19); settings: NEK9; 1000 nM
[18] = target: kinases (468) (Homo sapiens, UniProt Q9C098); settings: DCAMKL3 (DCLK3); 1000 nM
[19] = target: kinases (468) (Homo sapiens, UniProt Q9NRM7); settings: LATS2; 1000 nM
[20] = target: kinases (468) (Homo sapiens, UniProt O43353); settings: kinase RIPK2 (Entrez RIPK2); compound concentration 1000 nM
[21] = target: kinases (468) (Homo sapiens, UniProt P09769); settings: FGR; 1000 nM
[22] = target: kinases (468) (Homo sapiens, UniProt Q86UE8); settings: kinase TLK2 (Entrez TLK2); compound concentration 1000 nM
[23] = target: kinases (468) (Homo sapiens, UniProt O00444); settings: PLK4; 1000 nM
[24] = target: kinases (468) (Homo sapiens, UniProt Q00526); settings: CDK3; 1000 nM
[25] = target: kinases (468) (Homo sapiens, UniProt O15075); settings: DCAMKL1 (DCLK1); 1000 nM
[26] = target: kinases (468) (Homo sapiens, UniProt Q15349); settings: compound concentration 1000 nM
[27] = target: kinases (468) (Homo sapiens, UniProt P27448); settings: MARK3; 1000 nM
[28] = target: kinases (468) (Homo sapiens, UniProt Q00535); settings: CDK5; 1000 nM
[29] = target: kinases (468) (Homo sapiens, UniProt O43293); settings: DAPK3; 1000 nM
[30] = target: kinases (468) (Homo sapiens, UniProt Q99683); settings: ASK1 (MAP3K5); 1000 nM
[31] = target: kinases (468) (Homo sapiens, UniProt Q13882); settings: BRK (PTK6); 1000 nM
[32] = target: kinases (468) (Homo sapiens, UniProt Q8NEB9); settings: kinase VPS34 (Entrez PIK3C3); compound concentration 1000 nM
[33] = target: kinases (468) (Homo sapiens, UniProt Q96RR4); settings: CAMKK2; 1000 nM
[34] = target: kinases (468) (Homo sapiens, UniProt P42336, H1047Y); settings: PIK3CA(H1047Y); 1000 nM

Sequence of kinases (468) (Homo sapiens, UniProt Q15349) (Q15349 whole entry): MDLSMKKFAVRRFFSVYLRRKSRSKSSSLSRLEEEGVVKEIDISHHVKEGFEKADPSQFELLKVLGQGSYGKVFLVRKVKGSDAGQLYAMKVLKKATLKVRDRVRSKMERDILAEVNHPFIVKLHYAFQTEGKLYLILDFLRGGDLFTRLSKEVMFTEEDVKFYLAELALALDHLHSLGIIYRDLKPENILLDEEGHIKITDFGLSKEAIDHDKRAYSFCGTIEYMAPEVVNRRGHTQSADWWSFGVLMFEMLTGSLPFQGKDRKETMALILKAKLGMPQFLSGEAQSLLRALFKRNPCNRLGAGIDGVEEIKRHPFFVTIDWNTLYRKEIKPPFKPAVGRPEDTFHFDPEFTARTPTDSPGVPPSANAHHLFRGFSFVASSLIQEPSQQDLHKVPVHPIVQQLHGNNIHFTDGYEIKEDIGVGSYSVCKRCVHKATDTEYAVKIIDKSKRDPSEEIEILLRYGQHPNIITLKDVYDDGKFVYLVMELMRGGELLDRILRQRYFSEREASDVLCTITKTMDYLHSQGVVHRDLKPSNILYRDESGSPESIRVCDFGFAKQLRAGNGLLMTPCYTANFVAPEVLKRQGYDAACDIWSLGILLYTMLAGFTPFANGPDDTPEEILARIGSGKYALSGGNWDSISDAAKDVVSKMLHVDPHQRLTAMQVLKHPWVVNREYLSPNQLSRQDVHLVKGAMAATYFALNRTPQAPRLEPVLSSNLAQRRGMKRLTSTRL
Sequence of kinases (468) (Homo sapiens, UniProt P49336) (P49336 whole entry): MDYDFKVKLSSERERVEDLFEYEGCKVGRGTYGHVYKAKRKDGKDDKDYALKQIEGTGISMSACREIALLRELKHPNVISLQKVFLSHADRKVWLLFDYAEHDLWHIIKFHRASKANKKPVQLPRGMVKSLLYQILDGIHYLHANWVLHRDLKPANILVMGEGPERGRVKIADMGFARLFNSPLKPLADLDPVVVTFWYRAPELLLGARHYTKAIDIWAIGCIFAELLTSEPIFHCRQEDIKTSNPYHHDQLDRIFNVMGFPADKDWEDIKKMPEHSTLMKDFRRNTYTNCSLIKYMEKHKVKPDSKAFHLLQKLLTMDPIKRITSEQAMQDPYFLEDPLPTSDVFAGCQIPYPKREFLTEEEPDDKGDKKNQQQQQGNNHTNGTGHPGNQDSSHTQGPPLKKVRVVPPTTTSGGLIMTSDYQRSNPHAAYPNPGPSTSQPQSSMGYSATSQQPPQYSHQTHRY
Sequence of kinases (468) (Homo sapiens, UniProt P09769) (P09769 whole entry): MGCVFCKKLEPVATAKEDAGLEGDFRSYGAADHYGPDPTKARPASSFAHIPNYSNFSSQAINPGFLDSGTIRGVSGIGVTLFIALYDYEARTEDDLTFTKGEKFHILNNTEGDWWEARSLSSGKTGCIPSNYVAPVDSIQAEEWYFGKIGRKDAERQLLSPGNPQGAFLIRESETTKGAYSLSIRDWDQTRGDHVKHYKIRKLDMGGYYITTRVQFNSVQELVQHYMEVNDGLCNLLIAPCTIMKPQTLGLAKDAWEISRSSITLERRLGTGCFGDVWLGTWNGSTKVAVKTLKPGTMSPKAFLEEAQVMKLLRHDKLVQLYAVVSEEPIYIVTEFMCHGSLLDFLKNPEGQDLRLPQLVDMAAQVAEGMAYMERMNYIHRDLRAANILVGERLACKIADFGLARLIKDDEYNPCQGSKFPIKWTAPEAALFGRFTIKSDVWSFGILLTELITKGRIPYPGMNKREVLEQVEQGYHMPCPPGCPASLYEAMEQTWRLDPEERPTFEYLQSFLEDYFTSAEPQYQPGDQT
Sequence of kinases (468) (Homo sapiens, UniProt O43283) (O43283 whole entry): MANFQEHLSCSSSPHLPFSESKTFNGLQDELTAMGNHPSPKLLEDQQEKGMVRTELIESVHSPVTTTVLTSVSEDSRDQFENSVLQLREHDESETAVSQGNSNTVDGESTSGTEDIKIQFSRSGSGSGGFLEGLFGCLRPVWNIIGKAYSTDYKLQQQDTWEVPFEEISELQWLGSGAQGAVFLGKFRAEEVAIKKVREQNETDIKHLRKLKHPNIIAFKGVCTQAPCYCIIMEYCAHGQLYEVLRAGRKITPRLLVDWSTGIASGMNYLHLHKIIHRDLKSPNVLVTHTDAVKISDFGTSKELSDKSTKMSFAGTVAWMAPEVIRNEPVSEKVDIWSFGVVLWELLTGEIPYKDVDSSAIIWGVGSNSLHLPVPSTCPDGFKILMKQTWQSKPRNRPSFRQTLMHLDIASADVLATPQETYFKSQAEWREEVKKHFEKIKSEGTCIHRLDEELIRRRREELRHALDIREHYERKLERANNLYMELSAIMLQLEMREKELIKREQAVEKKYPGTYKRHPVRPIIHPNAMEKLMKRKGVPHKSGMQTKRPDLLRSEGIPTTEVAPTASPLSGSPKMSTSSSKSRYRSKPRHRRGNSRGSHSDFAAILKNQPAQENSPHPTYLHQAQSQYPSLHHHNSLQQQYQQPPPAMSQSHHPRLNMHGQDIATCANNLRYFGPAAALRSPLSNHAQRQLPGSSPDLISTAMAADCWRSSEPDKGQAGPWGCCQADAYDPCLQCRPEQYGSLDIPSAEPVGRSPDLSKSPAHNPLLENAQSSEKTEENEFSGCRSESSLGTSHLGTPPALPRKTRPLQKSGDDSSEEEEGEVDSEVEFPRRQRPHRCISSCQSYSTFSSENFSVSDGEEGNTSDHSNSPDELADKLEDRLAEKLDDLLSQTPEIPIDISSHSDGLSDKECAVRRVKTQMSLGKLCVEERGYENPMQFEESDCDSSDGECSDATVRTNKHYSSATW
Sequence of kinases (468) (Homo sapiens, UniProt O43353) (O43353 whole entry): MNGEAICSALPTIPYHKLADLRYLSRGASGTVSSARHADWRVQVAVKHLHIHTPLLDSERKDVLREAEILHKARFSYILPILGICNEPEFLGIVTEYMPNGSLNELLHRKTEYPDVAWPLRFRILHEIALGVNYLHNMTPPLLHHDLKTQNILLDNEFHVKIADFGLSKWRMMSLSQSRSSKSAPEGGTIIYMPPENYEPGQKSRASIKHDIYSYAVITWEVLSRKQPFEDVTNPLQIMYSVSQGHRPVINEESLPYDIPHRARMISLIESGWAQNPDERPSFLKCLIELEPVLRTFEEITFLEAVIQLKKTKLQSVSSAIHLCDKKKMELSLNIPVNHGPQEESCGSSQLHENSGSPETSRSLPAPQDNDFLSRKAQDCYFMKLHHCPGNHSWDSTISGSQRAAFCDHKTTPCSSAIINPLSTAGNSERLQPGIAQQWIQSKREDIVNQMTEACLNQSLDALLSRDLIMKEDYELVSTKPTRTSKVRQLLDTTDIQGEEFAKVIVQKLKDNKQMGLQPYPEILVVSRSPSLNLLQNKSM
Sequence of kinases (468) (Homo sapiens, UniProt Q9BXA7) (Q9BXA7 whole entry): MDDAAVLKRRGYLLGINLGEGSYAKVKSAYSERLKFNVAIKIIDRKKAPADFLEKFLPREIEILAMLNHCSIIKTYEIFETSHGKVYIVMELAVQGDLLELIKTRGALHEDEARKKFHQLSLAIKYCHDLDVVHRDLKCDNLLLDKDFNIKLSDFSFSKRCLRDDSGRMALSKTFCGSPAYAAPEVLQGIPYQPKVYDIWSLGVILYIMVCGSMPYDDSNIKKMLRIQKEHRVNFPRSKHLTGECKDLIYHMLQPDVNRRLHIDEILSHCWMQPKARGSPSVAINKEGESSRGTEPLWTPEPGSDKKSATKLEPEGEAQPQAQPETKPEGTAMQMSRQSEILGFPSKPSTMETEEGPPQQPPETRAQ
Sequence of kinases (468) (Homo sapiens, UniProt Q00526) (Q00526 whole entry): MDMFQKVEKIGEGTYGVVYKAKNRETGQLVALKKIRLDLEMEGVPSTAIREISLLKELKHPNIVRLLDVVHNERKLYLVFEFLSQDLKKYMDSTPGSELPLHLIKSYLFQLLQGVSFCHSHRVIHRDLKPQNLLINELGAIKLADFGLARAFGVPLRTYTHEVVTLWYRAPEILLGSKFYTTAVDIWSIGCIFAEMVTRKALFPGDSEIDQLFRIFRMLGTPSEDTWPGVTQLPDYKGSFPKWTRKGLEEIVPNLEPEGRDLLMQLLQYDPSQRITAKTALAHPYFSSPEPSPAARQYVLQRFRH
Sequence of kinases (468) (Homo sapiens, UniProt Q96L34) (Q96L34 whole entry): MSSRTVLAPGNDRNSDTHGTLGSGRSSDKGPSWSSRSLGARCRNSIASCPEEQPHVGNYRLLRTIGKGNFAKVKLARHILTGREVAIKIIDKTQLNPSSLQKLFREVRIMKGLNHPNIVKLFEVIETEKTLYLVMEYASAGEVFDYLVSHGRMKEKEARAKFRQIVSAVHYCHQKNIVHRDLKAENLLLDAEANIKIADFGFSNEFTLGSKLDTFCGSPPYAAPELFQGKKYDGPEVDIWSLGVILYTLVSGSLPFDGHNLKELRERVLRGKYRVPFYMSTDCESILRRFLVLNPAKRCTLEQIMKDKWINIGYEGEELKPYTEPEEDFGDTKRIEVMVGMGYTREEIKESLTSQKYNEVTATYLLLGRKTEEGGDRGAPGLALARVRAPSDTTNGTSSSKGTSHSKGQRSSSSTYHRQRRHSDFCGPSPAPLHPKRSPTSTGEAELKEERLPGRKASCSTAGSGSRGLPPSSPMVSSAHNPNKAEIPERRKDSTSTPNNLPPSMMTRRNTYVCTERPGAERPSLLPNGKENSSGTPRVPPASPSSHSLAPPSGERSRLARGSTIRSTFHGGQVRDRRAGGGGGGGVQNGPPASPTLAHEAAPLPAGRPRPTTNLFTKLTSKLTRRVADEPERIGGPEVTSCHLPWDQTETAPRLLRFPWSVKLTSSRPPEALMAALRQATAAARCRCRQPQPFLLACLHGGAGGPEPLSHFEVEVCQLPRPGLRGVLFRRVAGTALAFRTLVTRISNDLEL
Sequence of kinases (468) (Homo sapiens, UniProt P51817) (P51817 whole entry): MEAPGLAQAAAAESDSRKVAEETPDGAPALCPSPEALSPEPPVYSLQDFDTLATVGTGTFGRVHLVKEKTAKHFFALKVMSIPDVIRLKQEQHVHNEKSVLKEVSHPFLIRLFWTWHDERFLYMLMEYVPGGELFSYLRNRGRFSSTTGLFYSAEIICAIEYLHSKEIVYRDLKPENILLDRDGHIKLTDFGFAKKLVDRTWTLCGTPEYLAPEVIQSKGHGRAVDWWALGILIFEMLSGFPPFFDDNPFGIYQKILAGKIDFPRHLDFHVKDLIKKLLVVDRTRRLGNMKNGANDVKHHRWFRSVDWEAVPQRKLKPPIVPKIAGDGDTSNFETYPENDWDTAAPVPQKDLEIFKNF

SMILES: C[C@H]1C[C@@H](O)CN(c2ncc(Cl)c(Nc3ccc4c(c3)c3c(c(=O)n4C)OCC(F)(F)[C@H](C4CC4)N3)n2)C1 [CCT373566_9A]
- Percent Control [1]: 100%
- Percent Control [2]: 85%
- Percent Control [3]: 87%
- Percent Control [4]: 80%
- Percent Control [5]: 95%
- Percent Control [6]: 100%
- Percent Control [7]: 98%
- Percent Control [8]: 100%
- Percent Control [9]: 100%
- Percent Control [10]: 96%
- Percent Control [11]: 100%
- Percent Control [12]: 100%
- Percent Control [13]: 100%
- Percent Control [14]: 81%
- Percent Control [15]: 83%
- Percent Control [16]: 91%
- Percent Control [17]: 95%
- Percent Control [18]: 100%
- Percent Control [19]: 96%
- Percent Control [20]: 100%
- Percent Control [21]: 100%
- Percent Control [22]: 100%
- Percent Control [23]: 100%
- Percent Control [24]: 100%
- Percent Control [25]: 100%
- Percent Control ([26]; kinase RSK3(Kin.Dom.1-N-terminal) (Entrez RPS6KA2)): 100%
- Percent Control ([26]; kinase RSK3(Kin.Dom.2-C-terminal) (Entrez RPS6KA2)): 83%
- Percent Control [27]: 89%
- Percent Control [28]: 97%
- Percent Control [29]: 100%
- Percent Control [30]: 100%
- Percent Control [31]: 100%
- Percent Control [32]: 80%
- Percent Control [33]: 88%
- Percent Control [34]: 94%
